From PubChem BioAssay (NCI)
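48-hour exposure; five concentrations; linearly interpolated endpoints. The concentration for 50% growth inhibition is given as GI50. At the TGI there is no net growth.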

Legend:
Assay in all cases: NCI tumour cell line growth inhibition, 48 h
HS 578T breast = tested on: HS 578T breast
UACC-257 melanoma = tested on: UACC-257 melanoma
UO-31 renal = tested on: UO-31 renal
TK-10 renal = tested on: TK-10 renal
KM12 colon = tested on: KM12 colon
T-47D breast = tested on: T-47D breast
IGROV1 ovarian = tested on: IGROV1 ovarian
SK-OV-3 ovarian = tested on: SK-OV-3 ovarian
LOX IMVI melanoma = tested on: LOX IMVI melanoma
K-562 leukemia = tested on: K-562 leukemia
NCI-H23 lung = tested on: NCI-H23 lung
A498 renal = tested on: A498 renal
NCI-H460 lung = tested on: NCI-H460 lung
UACC-62 melanoma = tested on: UACC-62 melanoma
SK-MEL-28 melanoma = tested on: SK-MEL-28 melanoma
NCI-H226 lung = tested on: NCI-H226 lung
HOP-62 NSCLC = tested on: HOP-62 NSCLC
MDA-MB-231 breast = tested on: MDA-MB-231 breast
SNB-19 CNS = tested on: SNB-19 CNS
OVCAR-3 ovarian = tested on: OVCAR-3 ovarian
HCT-116 colon = tested on: HCT-116 colon
RXF 393 renal = tested on: RXF 393 renal
COLO 205 colon = tested on: COLO 205 colon
SK-MEL-2 melanoma = tested on: SK-MEL-2 melanoma
BT-549 breast = tested on: BT-549 breast
MDA-MB-435 = tested on: MDA-MB-435
DU-145 prostate = tested on: DU-145 prostate
MOLT-4 leukemia = tested on: MOLT-4 leukemia
786-0 renal = tested on: 786-0 renal

## CC(C)(C)Nc1nc2c(OCCc3ccccc3)cccn2c1-c1cccc(F)c1
HS 578T breast
  GI50: 10.1 µM
  TGI: 64.2 µM
UACC-257 melanoma
  GI50: 7.56 µM
  TGI: > 100 µM
UO-31 renal
  GI50: 2.75 µM
  TGI: 19.7 µM
TK-10 renal
  GI50: 14.2 µM
  TGI: > 100 µM
KM12 colon
  GI50: 4.13 µM
  TGI: > 100 µM
T-47D breast
  GI50: 3.55 µM
  TGI: > 100 µM
IGROV1 ovarian
  GI50: 8.99 µM
  TGI: > 100 µM
SK-OV-3 ovarian
  GI50: 19.9 µM
  TGI: > 100 µM
LOX IMVI melanoma
  GI50: 5.02 µM
  TGI: 17 µM
K-562 leukemia
  GI50: 3.49 µM
  TGI: > 100 µM
NCI-H23 lung
  GI50: 4.13 µM
  TGI: 34.8 µM
A498 renal
  GI50: 15.8 µM
  TGI: 65.1 µM
NCI-H460 lung
  GI50: 5.5 µM
  TGI: 24.8 µM
UACC-62 melanoma
  GI50: 2.92 µM
  TGI: 12.2 µM
SK-MEL-28 melanoma
  GI50: 3.93 µM
  TGI: 74.6 µM
NCI-H226 lung
  GI50: 6.29 µM
  TGI: 63 µM
HOP-62 NSCLC
  GI50: 11.8 µM
  TGI: 42 µM
MDA-MB-231 breast
  GI50: 10.2 µM
  TGI: 26.2 µM
SNB-19 CNS
  GI50: 5.81 µM
  TGI: > 100 µM
OVCAR-3 ovarian
  GI50: 3.91 µM
  TGI: 39 µM
HCT-116 colon
  GI50: 4.12 µM
  TGI: 36 µM
RXF 393 renal
  GI50: 8.78 µM
  TGI: 29.2 µM
COLO 205 colon
  GI50: 8.88 µM
  TGI: 26.8 µM
SK-MEL-2 melanoma
  GI50: 3.11 µM
  TGI: 12.4 µM
BT-549 breast
  GI50: 10.3 µM
  TGI: 36.3 µM
MDA-MB-435
  GI50: 5.07 µM
  TGI: 27.4 µM
DU-145 prostate
  GI50: 9.13 µM
  TGI: > 100 µM
MOLT-4 leukemia
  GI50: 3.22 µM
  TGI: > 100 µM
786-0 renal
  GI50: 13.5 µM
  TGI: 52.8 µM
